# In patent publication US11472843B2, “Malacidins and methods of use” (The Rockefeller University, priority 2017, dated 2022):
# Legend:
# [1] = test system: S. aureus COL; assay: MIC assay, S. aureus COL; type: cell-based, Staphylococcus aureus; conditions: β-lactams
# Procedure: (§1) MIC assays were performed in duplicate in 96-well microtiter plates on the basis of the protocol recommended by the Clinical and Laboratory Standards Institute (Cockerill, 2012, Clinical and Laboratory Standards Institute). All presented data are the average of at least three independent assays. Stock solutions of malacidin or daptomycin (2 mg ml^−1 in H2O) were added to the first well in a row and serially diluted (twofold per transfer) across the microtiter plate. CaCl2 was supplemented to media at a final concentration of 15 mM and fetal bovine serum (ATCC) was added to media (1:10) to test the effect of serum. Overnight cultures of bacteria were diluted 5,000-fold, and 50 μl was used as an inoculum in each well. MIC values were determined by visual inspection after 18 h incubation (30° C., static growth). For the enhanced calcium titration experiments, standard MIC assays were performed with methicillin-resistant Staphylococcus aureus (MRSA) PFGE strain type USA300 in media supplemented with CaCl2 at: 25.0, 18.8, 14.1, 7.03, 3.52, 2.50, 1.76, 0.880, 0.440, 0.250 and 0 mM. To assess the effects of monovalent and divalent cations on malacidin activity, standard MIC assays were performed with MRSA USA300 in media supplemented with 15 mM CaCl2, MgCl2, MnCl2, ZnCl2, SrCl2, NaCl and KCl. To evaluate the effects of pulmonary surfactants on activity against a community-acquired pneumonia-causing pathogen, standard MIC assays were performed with Streptococcus pneumoniae TCH8431 in media supplemented with both 15 mM […] and Survanta (beractant) at a final concentration of 5, 1, 0.5, 0.25 or 0% (volume/volume (v/v) percent).
# [2] = test system: S. aureus NRS100; assay: MIC assay, S. aureus NRS100; type: cell-based, Staphylococcus aureus; conditions: β-lactams
# Procedure: as §1
# [3] = test system: E. faecium VRE; assay: MIC assay, E. faecium VRE; type: cell-based, Enterococcus faecium; conditions: Vancomycin (VRE)
# Procedure: as §1
# [4] = test system: Streptococcus pneumoniae TCH8431; assay: MIC assay, S. pneumoniae; type: cell-based
# Procedure: as §1
# [5] = test system: Bacillus subtilis 168 IAI; assay: MIC assay, B. subtilis; type: cell-based
# Procedure: as §1
# [6] = test system: Candida albicans ATCC 1884; assay: MIC assay, C. albicans; type: cell-based
# Procedure: as §1
# [7] = test system: red blood cell (5% sheep blood agar plates); type: cell-based
# Procedure: Cytotoxicity against human cell lines was tested using an ATP release assay, CelITiter-Glo (Promega), according to the manufacturer's instructions. HEK293 cells (293FT, Thermo Fisher Scientific, no. R700-07) and MRC5 cells (ATCC CCL-171) were grown in complete DMEM media supplemented with 10% FBS, and were inspected visually for authentication and tested for mycoplasma contamination using a MycoAlert detection kit (Lonza). Cells were grown to confluence, trypsinized, counted and plated in 384-well cell culture plates at an appropriate density (2,500 cells per well for HEK293 and 1000 cells per well for MRC5). The test compound was added 24 h later in the presence of calcium, and viability was determined after 4.5 h of incubation. Experiments were performed with biological replicates. Haemolytic activity was evaluated by a red blood cell disc diffusion assay. Twenty-microlitre stocks of malacidin A and Triton X-100 were infused on filter discs, dried completely and then overlaid on 5% sheep blood agar plates (Hardy Diagnostics). The plates were incubated for 24 h at 20° C., and then checked for lysis.
# [8] = test system: UDP-MurNAc-pentapeptide in MRSA USA300; assay: UDP-MurNAc-pentapeptide accumulation assay; type: cell-based, Staphylococcus aureus; conditions: 10 μg ml^−1, 60 min, UPLC-MS
# Procedure: The intracellular accumulation of the cell wall precursor UDP-MurNAc-pentapeptide after treatment of MRSA USA300 with malacidin was assessed as previously described (Schneider et al., […], Antimicrob Agents Ch 53:1610-18). In brief, single colonies of MRSA USA300 were grown in LB media with and without 15 mM CaCl2 to an OD600 nm of 0.6. […] of cells and medium were incubated with a final concentration of 130 μg ml^−1 chloramphenicol for 15 min at 37° C. Antibiotics to be assayed were added at 10 μg ml^−1 and incubated for 60 min at 37° C. Vancomycin, known to form a complex with lipid II, was used as a positive control. Cells were collected by centrifugation, and resuspended in 30 μl dH2O and incubated in boiling water for 15 min. The cell extract was then centrifuged at 14,000 g. Supernatant was analysed for UDP-linked cell wall precursors by a UPLC-MS system. Experiments were performed with biological replicates.
substance,measurement,setting,value
malacidin A,MIC,"[1]; S. aureus COL, 15 mM CaCl2",0.2-0.8 μg m1^−1
same,MIC,[1]; Staphylococcus aureus COL,0.2 to 0.8 µg/mL
same,MIC,"[2]; S. aureus NRS100, tetracycline, 15 mM CaCl2",0.2-0.8 μg m1^−1
same,MIC,"[2]; Staphylococcus aureus NRS100, Tetracycline",0.2 to 0.8 µg/mL
same,MIC,"[3]; E. faecium VRE, 15 mM CaCl2",0.4-0.8 μg m1^−1
same,MIC,[3]; Enterococcus faecium VRE,0.8 to 2.0 µg/mL
same,Activity against S. pneumoniae in the presence of pulmonary surfactants,[4]; 15 mM CaCl2 and Survanta (beractant) 0-5% v/v,largely unaffected
same,MIC,"[4]; S. pneumoniae, 15 mM CaCl2",0.8-2.0 μg m1^−1
same,MIC,[4]; Streptococcus pneumoniae TCH8431,0.1 to 0.2 µg/mL
same,MIC,"[5]; B. subtilis, 15 mM CaCl2",0.2-0.4 μg m1^−1
same,MIC,[5]; Bacillus subtilis 168 IAI,0.2 to 0.4 µg/mL
same,MIC,"[6]; C. albicans, 15 mM CaCl2",>100 μg m1^−1
same,MIC,[6]; Candida albicans ATCC 1884,>100 µg/mL
same,Haemolytic activity,[7],no hemolytic effects
same,Accumulation of cell wall intermediate UDP-MurNAc-pentapeptide,[8],accumulation of the cell wall intermediate UDP-MurNAc-pentapeptide
